This is an account of results in patent publication US4672066A, “Derivatives of 4-acetyl-3-hydroxy-2-alkyl-phenoxycarboxylic acids” (Hoffmann-La Roche Inc., priority 1985, dated 1987).

Read-outs that look alike come from different tables or passages of the source.

By IC50 is commonly meant the concentration needed to halve the response being measured.

In one test the target is T1, TXA2 synthase (Homo sapiens, UniProt P24557).
T1 construct: microsomal fractions from human platelets as enzyme source; from tissue; host or cells: microsomal fraction of human platelets
T1 sequence (P24557 1-533): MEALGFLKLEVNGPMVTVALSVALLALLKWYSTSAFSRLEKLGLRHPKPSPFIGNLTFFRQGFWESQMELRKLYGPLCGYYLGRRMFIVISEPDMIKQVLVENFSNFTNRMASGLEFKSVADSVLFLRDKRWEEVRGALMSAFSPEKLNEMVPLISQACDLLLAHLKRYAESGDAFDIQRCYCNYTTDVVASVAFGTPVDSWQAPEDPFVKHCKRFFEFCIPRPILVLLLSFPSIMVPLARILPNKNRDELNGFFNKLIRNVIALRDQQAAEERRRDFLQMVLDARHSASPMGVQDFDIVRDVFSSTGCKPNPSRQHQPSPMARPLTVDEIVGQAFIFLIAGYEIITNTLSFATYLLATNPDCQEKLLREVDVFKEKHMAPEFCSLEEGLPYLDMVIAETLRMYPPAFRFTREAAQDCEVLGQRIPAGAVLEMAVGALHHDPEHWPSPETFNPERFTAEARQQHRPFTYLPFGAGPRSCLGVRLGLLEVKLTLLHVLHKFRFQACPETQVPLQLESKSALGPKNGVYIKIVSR
The test can be described thus: Thromboxane Synthase Inhibition, In Vitro. It is filed as biochemical. Conditions: at 1 μM (value in parentheses), human platelet microsomes. Here is the method:
TXA2 synthase activity is measured by following the conversion of ^14 C-prostaglandin endoperoxide (PGH2) to ^14 C-thromboxane A2 (TXA2) using microsomal fractions from human platelets as enzyme source. In the aqueous incubation medium, the TXA2 decomposes rapidly into TXB2. The amount of TXA2 synthase is adjusted so that under the conditions of the assay approximately 80-90% of the substrate, PGH2, is converted to product in control tubes. To prepare ^14 C-PGH2, ^14 C-AA (50-60 mCi/mmole; Rose Chem.) is incubated with sheep seminal vesicular gland microsomes for 1.5 minutes at 37° C. and then the ^14 C-PGH2 is extracted with diethylether, purified on columns of Sephadex LH-20 or silicic acid, and stored in acetone at -70° C. Incubations are done as follows. Sufficient ^14 C-PGH2 yield a final substrate concentration of 10 μM (~30,000 cpm) is added to the incubation tubes and then the acetone is removed under nitrogen. […] The tubes are incubated at 22° C. for 2 minutes, the reaction is stopped and then the radioactive products and the unconverted PGH2 are extracted and analyzed by thin layer chromatography. […] The amount of ^14 C-PGH2 converted to products was used as a measure of TXA2 synthase activity. Inhibitors were tested initially at a final concentration of 100 μM. Results obtained with representative compounds of the present invention in this assay are summarized hereafter in Table I, II and III.

The target in test [1] is T2, PAF (Canis lupus familiaris, UniProt A0A8I3NSH0).
T2 construct: followed by 2×10^7 dog platelets; from tissue; host or cells: washed platelets from citrate-treated dog blood
T2 sequence (A0A8I3NSH0 1-343): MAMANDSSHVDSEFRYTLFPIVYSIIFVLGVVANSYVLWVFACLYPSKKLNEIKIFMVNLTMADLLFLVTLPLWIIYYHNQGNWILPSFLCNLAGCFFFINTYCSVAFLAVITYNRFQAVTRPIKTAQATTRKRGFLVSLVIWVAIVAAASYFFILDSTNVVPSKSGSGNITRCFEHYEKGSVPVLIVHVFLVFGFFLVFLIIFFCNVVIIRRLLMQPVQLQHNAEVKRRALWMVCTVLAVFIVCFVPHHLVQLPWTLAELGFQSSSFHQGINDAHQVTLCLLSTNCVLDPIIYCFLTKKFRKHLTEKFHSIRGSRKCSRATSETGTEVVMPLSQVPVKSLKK
In words: PAF Radioreceptor Binding Assay. Conditions: dog platelets, 3H-PAF. Here is the method: Platelet rich plasma is prepared by centrifugation of citrate-treated dog blood. Acidification to pH 6.5 with 0.15 M citric acid and centrifugation for 10 minutes at 1000 xg yields a platelet pellet which is then washed by resuspension in EDTA-Phosphate Buffered Saline (PBS) and recentrifuged. The washed platelet preparation is adjusted to 2×10^7 platelets/50 μl in 0.1% BSA-PBS. […] After mixing, incubating for 10 minutes at room temperature, and centrifuging for 1 minute in a Beckman Microfuge B (8000 xg), the pellet is removed by clipping off the tip of the tube, the platelets are solubilized with 200 μl of 50% methanol, and counted in 10 ml of Aquasol. […] Results obtained with representative compounds of the present invention in this assay are summarized hereinafter in Tables I, II and III.

The next test has as its system SRS-A. The test can be described thus: Guinea Pig Ileum, In Vitro (SRS-A antagonism). Here is the method: The guinea pig ileum bioassay system has been described by Orange and Austen, Adv. Immunol. 10: 104-144 ([…]). A 1.5 cm segment is removed from animals weighting 300-400 g. and suspended in an organ bath containing 10 ml. of Tyrodes solution with 10^-6 M atropine sulfate and 10^-6 M pyrilamine maleate. The bath is maintained at 37° C. and aerated with a mixture of 95% oxygen and 5% carbon dioxide. The SRS-A utilized in this screen is obtained by challenging chopped lung fragments from actively sensitized guinea pigs with egg albumin, in vitro. A dose-response curve to SRS-A challenge is established for the ileum. The dose of SRS-A which gives 50% of the maximal contraction (EC50) is then used for subsequent challenge. The drug concentration which inhibits, by 50%, the SRS-A induced constriction of the guinea pig ileum is determined.

Another test has as its system leukotriene E4 (LTE4). In words: LTE4-Induced Guinea Pig Bronchoconstriction Test. Conditions: 10 mg/kg i.v. In kind it is in vivo. On the procedure: In this test system, the ability of a drug to inhibit the bronchoconstriction induced in guinea pigs by leukotriene E4 (LTE4) is measured. A maximally constrictory dose of LTE4 is injected into guinea pigs which have been pretreated with propranolol (0.1 mg/kg, i.v.) for 5 minutes prior to challenge. The bronchoconstriction (in cm H2 O) elicited in animals pretreated intravenously for 30 seconds (at 10 mg/kg) or orally for 2 hours (at 100 mg/kg) with the test drug prior to LTE4 challenge is compared to that elicited in the absence of the test compound to determine the in vivo activity of the drug.

Test [2] relates to PAF. In words: PAF-Induced Guinea Pig Bronchoconstriction Test. It is filed as in vivo, guinea pig (Hartley). Conditions: for inhibition of PAF-induced bronchoconstriction: 1.0 mg/kg i.v., 1 min pretreatment. On the procedure: Male guinea pigs (Hartley strain) weighing 300 to 500 g are anesthetized with urethane (2 g/kg) intraperitoneally and a polyethylene cannula is inserted into the jugular vein for drug administration. Tracheal pressure is recorded from a cannula inserted in the trachea and connected to a Statham pressure transducer. Propranolol (0.1 mg/kg) is administered intravenously five minutes before challenge with synthetic PAF, the animals's skeletal muscles are then paralyzed with succinylcholine (1.2 mg/kg i.v.), and the animal is respirated using a Harvard small animal respirator operating at 40 breaths/min and 2.5 cc stroke volume. Under these conditions PAF induces a dose-dependent increase in ventilatory pressure over a dose range of 0.5 to 5 pg/kg i.v. The bronchoconstrictive effect of PAF occurs at approximately a 10-fold lower dose than that obtained with LTE. For screening purposes animals are challenged with a single dose of PAF (10 pg/kg i.v.).
Test compounds are screened by either the intravenous route (1.0 mg/kg i.v., 1 min pretreatment) or oral route (100 mg/kg p.o., 2 hour pretreatment). The peak increase in ventilatory pressure (cm H2 O) is recorded for three control animals and five drug-treated animals and the percent inhibition determined.

The subject of test [3] is PAF. In words: PAF-Induced Rat Skin Wheal Test. Conditions: for inhibition of PAF-induced rat skin wheal: 5 mg/kg i.v. (1 min. pretreatment). It is filed as in vivo, Sprague-Dawley rats. On the procedure:
This test evaluates the ability of compounds to inhibit PAF-induced increases in vascular permeability in the skin of Sprague-Dawley rats. PAF induces a dose-dependent skin wheal response in this system over a dose range of 0.0001 to 1 pg/0.05 ml injection. The profound vasoactive activity of PAF is emphasized by the fact that the maximum skin wheal response is considerably greater than that obtained with LTE and an EC50 response is elicited at a 10-fold lower dose. For drug screening purposes, 5 ng of PAF is injected intradermally into anesthetized rats which had been pretreated for 30 minutes with an antihistamine (pyrilamine maleate, 50 mg/kg, i.p.) and an antiserotonin compound (methylsergide maleate, 4 mg/kg, i.p.). Immediately thereafter, the test compound is injected intravenously into the tail vein of the animal. This is followed by an intravenous injection of Evan's blue dye (0.5% in saline). Thirty minutes later the animals are sacrificed and the increase in vascular permeability induced by the migration of dye into the injection point in the skin is determined. For this purpose, rats are sacrificed by cervical dislocation, the dorsal skin is removed, the long and short axis of each […] is measured with a metric vernier caliper and the average diameter is obtained.

Setting [4] is: Table II, read-out: TXA2 Synth. Inhib. % at (1μM).
The mark [5] stands for this setting: Table II, read-out: SRS Antagonism IC50.
Where [6] appears, read: Table I, read-out: SRS-A Antagonism IC50.
Setting [7] is: Table III, read-out: TXA2 Synth. Inhib. % at (1 μM).

Regarding `CCCc1c(OCCCCCC(=O)NCCSc2cccnc2)ccc(C(C)=O)c1O`, the inhibition at 1 µM at TXA2 synthase (setting [4]) worked out at 35%. Also, the 50% inhibitory concentration (IC50) at PAF [1] (Table II) and in the test with SRS-A (setting [5]) was 1000 nM throughout.

`CCCc1c(OCC(O)COc2ccc3c(=O)cc(C(=O)O)oc3c2CCC)ccc(C(C)=O)c1O` (stereo not drawn) [7-[3-(4-acetyl-3-hydroxy-2-propylphenoxy)-2-hydroxypropoxy]-4-oxo-8-propyl-4H-1-benzopyran-2-carboxylic acid, reference compound]: the IC50 in the test on SRS-A (standard SRS-A antagonist, read-out: IC50, SRS-A induced constriction of the guinea pig ileum) amounted to 35 nM.

For `CCCc1c(OCCCCCC(=O)NCCCCc2cccnc2)ccc(C(C)=O)c1O.Cl` [Example 4, 6-(4-Acetyl-3-hydroxy-2-propylphenoxy)-N-[4-(3-pyridinyl)butyl]hexanamide hydrochloride], the IC50 on PAF [1] (Table I) was 700 nM; in the test with SRS-A (setting [6]), 6000 nM. The “inhibition of LTE4-induced bronchoconstriction” value with leukotriene E4 (LTE4) amounted to 95%.

As to `CCCc1c(OCCCC(=O)NCCCCc2cccnc2)ccc(C(C)=O)c1O` [Example 5, 4-(4-Acetyl-3-hydroxy-2-propylphenoxy)-N-[4-(3-pyridinyl)butyl]butanamide], the inhibition at 1 µM came out at 89% on TXA2 synthase (Table I, read-out: TXA2 Syn. Inhib. (1μM)) and 89% at TXA2 synthase (setting [7]). The values for the IC50 on PAF [1] (Table I) and in the test with SRS-A (setting [6]) were 250 nM and 5000 nM, respectively. In the test on PAF [2], the “inhibition of PAF-induced bronchoconstriction” value is listed as 64±12%.

Regarding `CCCc1c(OCCCC#CC(=O)NCCCCc2cccnc2)ccc(C(C)=O)c1O` [Example 21, 6-(4-Acetyl-3-hydroxy-2-propylphenoxy)-N-[4-(3-pyridinyl)butyl]-2-hexynamide], the “inhibition of PAF-induced bronchoconstriction” value in the test on PAF [2] was determined as 98±10%. In addition, the “inhibition of PAF-induced rat skin wheal” value in the test with PAF [3] is given as 62±3%.

For `CCCc1c(OCCCCCC(=O)OCCCc2cccnc2)ccc(C(C)=O)c1O.Cl` [Example 28, 6-(4-Acetyl-3-hydroxy-2-propylphenoxy)-hexanoic acid, 3-(3-pyridinyl)propyl ester hydrochloride], in the test on leukotriene E4 (LTE4), the “inhibition of LTE4-induced bronchoconstriction” value is 87%.

Take `CCCc1c(OCCCCCNC(=O)NCCCCc2cccnc2)ccc(C(C)=O)c1O` [Example 29, N-[5-(4-Acetyl-3-hydroxy-2-propylphenoxy)-pentyl]-N'-[4-(3-pyridinyl)butyl]urea]: the inhibition at 1 µM at TXA2 synthase (setting [7]) worked out at 89%. This molecule displayed a half-maximal inhibitory concentration (IC50) on PAF [1] (Table III) of 900 nM. In addition, the “inhibition of PAF-induced bronchoconstriction” value in the test on PAF [2] is listed as 68±10%.

In the case of `CCCc1c(OCc2ccc(C(=O)NC(C)CCCc3cccnc3)cc2)ccc(C(C)=O)c1O` (stereo not drawn) [Example 34, 4-[(4-Acetyl-3-hydroxy-2-propylphenoxy)-methyl]-N-[1-methyl-4-(3-pyridinyl)butyl]benzamide], in the test on PAF [2], the “inhibition of PAF-induced bronchoconstriction” value is on record as 85±8%. Moreover, the “inhibition of PAF-induced rat skin wheal” value in the test with PAF [3] was determined as 63±4%.

With `CCCCCCCCCCCCCCCCOCC(COP(=O)([O-])OCC[N+](C)(C)C)OC(C)=O` (stereo not drawn) [PAF, reference compound], the “bronchoconstrictive effect of PAF, dose lower than that with LTE” value in the test on PAF [2] (i.v., compared with LTE) was approximately 10 fold. For the same molecule, the “EC50 response in skin wheal, dose lower than with LTE” value with PAF [3] (compared with LTE) is given as 10 fold.

In the case of `CCCc1c(OCCCCCC(=O)NCCCCc2cncnc2)ccc(C(C)=O)c1O` [drawing 31], at TXA2 synthase (setting [4]), the inhibition at 1 µM is 66%. For the same molecule, the IC50 on PAF [1] (Table II) is 550 nM; in the test on SRS-A (setting [5]) it was 10000 nM.

In the case of `CCCc1c(OCC#CCCCC(=O)NCCCCc2cccnc2)ccc(C(C)=O)c1O` [drawing 35], the values for the IC50 on PAF [1] (Table II) and with SRS-A (setting [5]) were 600 nM and 700 nM, respectively.
